What is called MIC is the least concentration at which growth counts as inhibited.

Six compounds from DBAASP can be followed below.

Some test systems named below: Staphylococcus aureus; Yersinia pestis KIM pYV; Serratia rubidaea X01.
Holding throughout (experiment): ≥ marks a high value that may be exact or a test limit, other limits are often not marked, values filed in µg/mL are converted to µM
The test system of experiment [1] is Enterococcus faecalis ATCC 29212.
In experiment [2] the test system is Escherichia coli ATCC 25922.
The subject of experiment [3] is Klebsiella pneumoniae ATCC 13883.
Experiment [4] has as its system Pseudomonas aeruginosa ATCC 27853.
The subject of experiment [5] is Staphylococcus aureus ATCC 25923.
The test system of experiment [6] is Staphylococcus aureus ATCC 29213.
The test system of experiment [7] is Streptococcus agalactiae ATCC 12386.
For experiment [8], the system named is Acinetobacter baumannii ATCC 19606.
For experiment [9], the system named is Bordetella bronchiseptica CUN 11844-99.
Experiment [10] has as its system Brucella abortus 9.49 (per-).
Experiment [11] has as its system Pseudomonas aeruginosa CUN 4158-02.
The test system of experiment [12] is Staphylococcus aureus ATCC 43300.
In experiment [13] the test system is Staphylococcus aureus ΔmprFpRBsyn.
Experiment [14] deals with Staphylococcus aureus ΔmprF.
Experiment [15] deals with Candida albicans ATCC 3623.
For experiment [16], the system named is Escherichia coli ATCC 2592.
For experiment [17], the system named is Micrococcus luteus ATCC 9341.
Experiment [18] concerns Pseudomonas aeruginosa ATCC 9027.
In experiment [19] the test system is Staphylococcus aureus ATCC 6538.
Experiment [20] deals with Bacillus licheniformis X39.
In experiment [21] the test system is Enterococcus faecalis 981.
Experiment [22] relates to Klebsiella pneumoniae 08040724.
The test system of experiment [23] is Psychrobacter faecalis X29.
Experiment [24] has as its system Rhodococcus rhodochrous X15.
In experiment [25] the test system is Staphylococcus carnosus KHS.
Experiment [26] has as its system Bacillus subtilis ATCC 6633.
Experiment [27] relates to Candida albicans ATCC 2002.
Experiment [28] has as its system Enterococcus faecium NTCC 12697.
The subject of experiment [29] is Escherichia coli ATCC 8739.
In experiment [30] the test system is Klebsiella pneumoniae ATCC 43816.
Experiment [31] relates to Pseudomonas aeruginosa CMCCB 10104.
Experiment [32] concerns Staphylococcus aureus NCTC 10788.
Experiment [33] concerns Staphylococcus aureus NCTC 12493.
Experiment [34] deals with Penicillium digitatum PHI-26.

Converted amounts (≈) assume the structure as drawn. “And” between values parts separate entries of the source, which are not always exact repeats. Equal entries are not always repeated. A value given as a limit tells only on which side of the number the result lay.

Take `CC[C@H](C)[C@H](NC(=O)CN)C(=O)NCC(=O)N[C@@H](CCCCN)C(=O)N[C@@H](Cc1ccccc1)C(=O)N[C@@H](CC(C)C)C(=O)N[C@@H](Cc1cnc[nH]1)C(=O)N[C@@H](CO)C(=O)N[C@@H](C)C(=O)N[C@@H](CCCCN)C(=O)N[C@@H](CCCCN)C(=O)N[C@@H](Cc1ccccc1)C(=O)N[C@@H](C)C(=O)N[C@@H](CCCCN)C(=O)N[C@@H](C)C(=O)N[C@@H](Cc1ccccc1)C(=O)N[C@H](C(=O)N[C@@H](C)C(=O)N[C@@H](CCC(=O)O)C(=O)N[C@H](C(=O)N[C@@H](CCSC)C(=O)N[C@@H](CC(N)=O)C(=O)N[C@@H](CO)C(N)=O)[C@@H](C)CC)C(C)C` [GIGKFLHSAKKFAKAFVAEIMNS]: the MIC in [1] was 10 µM (≈ 25 µg/mL); in [2] it was 2 µM (≈ 5 µg/mL); in experiment [3] it was 10 µM (≈ 25 µg/mL); in [4] it was 20 µM (≈ 50 µg/mL); in experiment [5], 10 µM (≈ 25 µg/mL); in experiment [6], 4.01 µM (≈ 10 µg/mL). Moreover, in experiment [7], the MIC came out at 0.401 µM (≈ 1 µg/mL).
As for `CC[C@H](C)[C@H](NC(=O)[C@H](CCCN=C(N)N)NC(=O)[C@H](CCCN=C(N)N)NC(=O)[C@H](CC(C)C)NC(=O)[C@H](Cc1ccccc1)NC(=O)[C@@H](NC(=O)[C@H](CCCN=C(N)N)NC(=O)[C@H](CCSC)NC(=O)[C@@H](NC(=O)[C@H](CCCCN)NC(=O)[C@H](CCCCN)NC(=O)[C@H](CO)NC(=O)[C@@H](NC(=O)CNC(=O)[C@H](CCCN=C(N)N)NC(=O)[C@H](CC(C)C)NC(=O)[C@@H](NC(=O)[C@@H](N)CCCCN)[C@@H](C)CC)C(C)C)[C@@H](C)CC)[C@@H](C)O)C(=O)N[C@@H](CO)C(=O)N[C@@H](CCCCN)C(=O)N[C@@H](CC(=O)O)C(=O)N[C@H](C(=O)N[C@@H](CC(C)C)C(=O)N[C@H](C(=O)NCC(=O)N[C@@H](CCCCN)C(=O)N[C@@H](CCCCN)C(N)=O)[C@@H](C)O)[C@@H](C)CC` [KILRGVSKKIMRTFLRRISKDILTGKK], the MIC in experiment [8] was 0.628 µM (≈ 2 µg/mL); in [9], 1.26 µM (≈ 4 µg/mL); in experiment [10], 0.628 µM (≈ 2 µg/mL); in experiment [2] it was 1.26 µM (≈ 4 µg/mL); in [11] it was 1.26 µM (≈ 4 µg/mL); in experiment [12], 40.2 µM (≈ 128 µg/mL). Moreover, the MIC in [13] was 1.26 µM (≈ 4 µg/mL); in experiment [14], 1.26 µM (≈ 4 µg/mL); in the experiment with Staphylococcus aureus, 20.1 µM (≈ 64 µg/mL); in the experiment with Yersinia pestis KIM pYV, 5.02 µM (≈ 16 µg/mL).
On to `CC(C)C[C@H](NC(=O)[C@H](CC(C)C)NC(=O)[C@H](CCCCN)NC(=O)[C@H](CC(C)C)NC(=O)[C@H](CC(C)C)NC(=O)[C@H](CC(C)C)NC(=O)[C@H](CCCCN)NC(=O)[C@H](CC(C)C)NC(=O)[C@H](CC(C)C)NC(=O)[C@H](CC(C)C)NC(=O)[C@@H](N)CCCCN)C(=O)N[C@@H](CCCCN)C(N)=O` [KLLLKLLLKLLK], for which the MIC in experiment [15] turned out to be 4.39 µM (≈ 6.3 µg/mL); in experiment [16], 11.6 µM (≈ 16.7 µg/mL); in [17], 4.39 µM (≈ 6.3 µg/mL); in experiment [18] it was 8.7 µM (≈ 12.5 µg/mL); in [19], 11.6 µM (≈ 16.7 µg/mL).
With `CC[C@H](C)[C@@H]1NC(=O)CNC(=O)[C@@H](NC(=O)[C@H](CCCN=C(N)N)NC(=O)[C@@H](NC(=O)[C@H](CCCCN)NC(=O)[C@H](CC(=O)O)NC(=O)[C@H](CC(C)C)NC(=O)[C@@H](NC(=O)[C@H](CC(N)=O)NC(=O)[C@@H](NC(=O)[C@H](C)NC(=O)[C@H](Cc2ccccc2)NC(=O)[C@H](CCCCN)NC(=O)[C@H](CCCCN)NC(=O)CNC(=O)[C@H](C)NC(=O)[C@H](CCC(=O)O)NC(=O)[C@H](CCCCN)NC(=O)[C@@H](NC(=O)[C@@H](NC(=O)[C@H](CC(N)=O)NC(=O)[C@H](Cc2c[nH]c3ccccc23)NC(=O)[C@H](CC(C)C)NC(=O)CN)[C@@H](C)O)[C@@H](C)CC)[C@@H](C)CC)C(C)C)[C@@H](C)CC)CSSC[C@@H](C(=O)N[C@@H](CCCCN)C(=O)N[C@H](C(=O)O)[C@@H](C)O)NC(=O)CNC(=O)CNC(=O)[C@H](C)NC1=O` [GLWNTIKEAGKKFAINVLDKIRCGIAGGCKT], the MIC was 19 µM (≈ 62.8 µg/mL) in [20]; no less than 75 µM in experiment [21]; 150 µM (≈ 496 µg/mL) in experiment [2]; no less than 150 µM in experiment [22]; 4.5 µM (≈ 14.9 µg/mL) in experiment [23]; 2.3 µM (≈ 7.6 µg/mL) in [24]. The MIC with Serratia rubidaea X01 came out at 4.6 µM (≈ 15.2 µg/mL); in experiment [5], 150 µM (≈ 496 µg/mL); in [25], 19 µM (≈ 62.8 µg/mL).
In the case of `CC[C@H](C)[C@@H]1NC(=O)[C@H](CCCCN)NC(=O)[C@@H](NC(=O)[C@H](CCCCN)NC(=O)[C@H](CC(C)C)NC(=O)[C@H](CCCCN)NC(=O)[C@H](CC(=O)O)NC(=O)[C@H](CC(C)C)NC(=O)[C@H](CC(C)C)NC(=O)[C@@H](NC(=O)[C@H](C)NC(=O)[C@H](C)NC(=O)[C@@H](NC(=O)[C@H](CC(N)=O)NC(=O)[C@H](CCCCN)NC(=O)[C@H](C)NC(=O)[C@@H](NC(=O)[C@H](CC(N)=O)NC(=O)[C@H](CCCCN)NC(=O)[C@H](C)NC(=O)[C@@H](NC(=O)[C@H](CC(=O)O)NC(=O)[C@H](CCSC)NC(=O)[C@H](Cc2ccccc2)NC(=O)CN)[C@@H](C)O)C(C)C)C(C)C)[C@@H](C)O)CSSC[C@@H](C(=O)O)NC(=O)CNC(=O)CNC(=O)[C@H]([C@@H](C)O)NC1=O` [GFMDTAKNVAKNVAATLLDKLKCKITGGC], the minimum inhibitory concentration (MIC) was 12.5 µM (≈ 37.6 µg/mL) in [26]; 4.81 µM (≈ 14.5 µg/mL) in experiment [27]; no less than 256 µM in [28]; 4.81 µM (≈ 14.5 µg/mL) in experiment [2]; no less than 100 µM in experiment [29]; no less than 128 µM in experiment [30]. Besides, the minimum inhibitory concentration (MIC) is no less than 128 µM in [18]; 4.81 µM (≈ 14.5 µg/mL) in experiment [31]; 2.42 µM (≈ 7.3 µg/mL) in experiment [5]; greater than 100 µM in experiment [12]; 25 µM (≈ 75.2 µg/mL) in experiment [19]; no less than 32 µM in experiment [32]. For the same compound, the minimal inhibitory concentration (MIC) in experiment [33] is no less than 256 µM.
As to `CC[C@H](C)[C@H](NC(=O)CN)C(=O)NCC(=O)N[C@@H](C)C(=O)N[C@H](C(=O)N[C@@H](CC(C)C)C(=O)N[C@H](C(=O)N[C@H](C(=O)N[C@@H](CC(C)C)C(=O)N[C@H](C(=O)N[C@H](C(=O)NCC(=O)N[C@@H](CC(C)C)C(=O)N1CCC[C@H]1C(=O)N[C@@H](C)C(=O)N[C@@H](CC(C)C)C(=O)N[C@H](C(=O)N[C@@H](CO)C(=O)N[C@@H](Cc1c[nH]c2ccccc12)C(=O)N[C@H](C(=O)N[C@@H](CCCCN)C(=O)N[C@@H](CCCN=C(N)N)C(=O)N[C@@H](CCCCN)C(=O)N[C@@H](CCCN=C(N)N)C(=O)N[C@@H](CCC(N)=O)C(=O)N[C@@H](CCC(N)=O)C(N)=O)[C@@H](C)CC)[C@@H](C)CC)[C@@H](C)O)[C@@H](C)O)C(C)C)[C@@H](C)CC)C(C)C` [GIGAVLIVLTTGLPALISWIKRKRQQ], in experiment [34], the MIC was 8 µM and 15 µM.
